Data reported in ChEMBL document CHEMBL5465560, “Selectivity Literature for EUbOPEN Chemogenomic Library” (2024).
Values belong to the molecule of their own block, whether it stands above or below them.

Key:
[1] = molecular target: Protein kinase C gamma type (Homo sapiens) (UniProt P05129); assay: Selectivity interaction (Kinase panel (Z-LYTE Assay)) EUB0001632a PRKCG; settings: at 10 µM
[2] = molecular target: Proto-oncogene tyrosine-protein kinase ROS (Homo sapiens) (UniProt P08922); assay: Selectivity interaction (Kinase panel (Z-LYTE Assay)) EUB0001632a ROS1; settings: at 10 µM
[3] = molecular target: Amine oxidase [flavin-containing] A (Homo sapiens, UniProt P21397); assay: Selectivity interaction (Monoamine Oxidase A, human recombinant baculovirus ) EUB0000877a MAOA
[4] = molecular target: Angiopoietin-1 receptor (Homo sapiens) (UniProt Q02763); assay: Selectivity interaction (SelectScreen profiling (Invitrogen)) EUB0000607a TEK; settings: at 2 µM
[5] = molecular target: Proto-oncogene tyrosine-protein kinase Src (Homo sapiens, UniProt P12931); assay: Selectivity interaction (SelectScreen profiling (Invitrogen)) EUB0000607a SRC; settings: at 2 µM
[6] = molecular target: T1, Interleukin-1 receptor-associated kinase 3 (Homo sapiens) (UniProt Q9Y616); assay: Selectivity interaction (ActivX KiNativ screen (kinase selectivity in THP-1 cell lysates)) EUB0000639a IRAK3; assay type: subcellular; settings: lysate, at 1 µM
T1 sequence (whole entry): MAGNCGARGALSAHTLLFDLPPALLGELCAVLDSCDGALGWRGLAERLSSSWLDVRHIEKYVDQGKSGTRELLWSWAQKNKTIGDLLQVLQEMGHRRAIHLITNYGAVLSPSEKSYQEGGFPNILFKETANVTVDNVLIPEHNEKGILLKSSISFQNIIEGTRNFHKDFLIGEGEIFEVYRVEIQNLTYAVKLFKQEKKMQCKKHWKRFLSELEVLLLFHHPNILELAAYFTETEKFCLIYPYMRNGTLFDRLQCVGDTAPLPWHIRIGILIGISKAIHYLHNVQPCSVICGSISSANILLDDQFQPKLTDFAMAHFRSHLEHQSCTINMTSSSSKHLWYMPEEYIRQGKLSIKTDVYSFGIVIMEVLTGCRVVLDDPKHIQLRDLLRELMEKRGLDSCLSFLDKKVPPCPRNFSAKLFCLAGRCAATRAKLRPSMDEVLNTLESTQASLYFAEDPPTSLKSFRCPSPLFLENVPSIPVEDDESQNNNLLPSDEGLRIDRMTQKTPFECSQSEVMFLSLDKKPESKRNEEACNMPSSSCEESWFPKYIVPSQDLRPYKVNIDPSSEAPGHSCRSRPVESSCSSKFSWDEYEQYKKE

[7] = molecular target: Tyrosine-protein kinase SYK (Homo sapiens, UniProt P43405); assay: Selectivity interaction (ProQinase) EUB0000171b SYK
[8] = molecular target: T2, STE20-like serine/threonine-protein kinase (Homo sapiens, UniProt Q9H2G2); assay: Selectivity interaction (KinomeScan (DiscoverX)) EUB0000695a SLK; settings: at 100 nM
[9] = molecular target: Serine/threonine-protein kinase MRCK alpha (Homo sapiens) (UniProt Q5VT25); assay: Selectivity interaction (KinomeScan (DiscoverX)) EUB0001049a CDC42BPA; settings: at 1 µM
[10] = molecular target: T3, Receptor-interacting serine/threonine-protein kinase 4 (Homo sapiens) (UniProt P57078); assay: Selectivity interaction (KinomeScan (DiscoverX)) EUB0001049a RIPK4; settings: at 1 µM
T3 sequence (whole entry): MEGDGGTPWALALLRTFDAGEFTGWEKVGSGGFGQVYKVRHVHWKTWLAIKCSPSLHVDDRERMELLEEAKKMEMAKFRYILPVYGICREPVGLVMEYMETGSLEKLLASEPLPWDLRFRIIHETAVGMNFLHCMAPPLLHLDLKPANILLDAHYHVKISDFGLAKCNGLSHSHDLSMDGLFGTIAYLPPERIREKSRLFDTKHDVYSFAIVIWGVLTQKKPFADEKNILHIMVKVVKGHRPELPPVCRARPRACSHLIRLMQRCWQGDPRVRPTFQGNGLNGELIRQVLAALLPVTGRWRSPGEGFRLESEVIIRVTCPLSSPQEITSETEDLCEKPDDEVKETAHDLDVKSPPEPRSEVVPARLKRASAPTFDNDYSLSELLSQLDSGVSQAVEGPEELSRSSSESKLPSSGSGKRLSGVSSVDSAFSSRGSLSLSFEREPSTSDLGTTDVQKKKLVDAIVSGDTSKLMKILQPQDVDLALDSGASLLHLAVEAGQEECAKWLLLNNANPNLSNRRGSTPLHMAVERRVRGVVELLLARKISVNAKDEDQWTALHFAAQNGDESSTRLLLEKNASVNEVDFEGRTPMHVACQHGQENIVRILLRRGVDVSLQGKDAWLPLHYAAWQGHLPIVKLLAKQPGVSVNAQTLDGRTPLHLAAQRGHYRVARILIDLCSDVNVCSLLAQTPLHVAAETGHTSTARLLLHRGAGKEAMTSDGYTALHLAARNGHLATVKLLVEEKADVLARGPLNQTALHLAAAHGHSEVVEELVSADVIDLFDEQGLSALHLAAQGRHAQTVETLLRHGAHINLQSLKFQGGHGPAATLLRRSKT

[11] = molecular target: T4, Dual specificity mitogen-activated protein kinase kinase 7 (Homo sapiens) (UniProt O14733); assay: Selectivity interaction (Millipore kinase profiler) EUB0000124b MAP2K7; settings: at 10 µM
T4 sequence (whole entry): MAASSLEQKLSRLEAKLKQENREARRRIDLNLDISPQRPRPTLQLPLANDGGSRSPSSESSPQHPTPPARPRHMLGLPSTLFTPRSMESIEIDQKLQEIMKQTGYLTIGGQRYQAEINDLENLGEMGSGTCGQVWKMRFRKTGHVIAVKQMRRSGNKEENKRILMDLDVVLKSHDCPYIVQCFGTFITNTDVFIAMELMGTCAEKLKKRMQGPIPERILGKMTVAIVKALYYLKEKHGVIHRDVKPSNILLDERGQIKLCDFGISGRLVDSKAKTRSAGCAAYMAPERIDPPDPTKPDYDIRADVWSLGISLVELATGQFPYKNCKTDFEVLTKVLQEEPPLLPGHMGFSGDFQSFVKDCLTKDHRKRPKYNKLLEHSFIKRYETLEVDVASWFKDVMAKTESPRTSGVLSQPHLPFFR

[12] = molecular target: T2, STE20-like serine/threonine-protein kinase; assay: Selectivity interaction (KinomeScan (DiscoverX)) EUB0000229b SLK; settings: at 10 µM
[13] = molecular target: Vascular endothelial growth factor receptor 2 (Homo sapiens, UniProt P35968); assay: Selectivity interaction (NovaScreen assay) EUB0001542aTs KDR
[14] = molecular target: DNA-dependent protein kinase catalytic subunit (Homo sapiens) (UniProt P78527); assay: Selectivity interaction (ActivX KiNativ screen (ex vivo kinase selectivity in human PBMCs)) EUB0001619a PRKDC; assay type: cell-based; settings: PBMC, at 1 µM

T2 sequence (Q9H2G2 whole entry, looked up): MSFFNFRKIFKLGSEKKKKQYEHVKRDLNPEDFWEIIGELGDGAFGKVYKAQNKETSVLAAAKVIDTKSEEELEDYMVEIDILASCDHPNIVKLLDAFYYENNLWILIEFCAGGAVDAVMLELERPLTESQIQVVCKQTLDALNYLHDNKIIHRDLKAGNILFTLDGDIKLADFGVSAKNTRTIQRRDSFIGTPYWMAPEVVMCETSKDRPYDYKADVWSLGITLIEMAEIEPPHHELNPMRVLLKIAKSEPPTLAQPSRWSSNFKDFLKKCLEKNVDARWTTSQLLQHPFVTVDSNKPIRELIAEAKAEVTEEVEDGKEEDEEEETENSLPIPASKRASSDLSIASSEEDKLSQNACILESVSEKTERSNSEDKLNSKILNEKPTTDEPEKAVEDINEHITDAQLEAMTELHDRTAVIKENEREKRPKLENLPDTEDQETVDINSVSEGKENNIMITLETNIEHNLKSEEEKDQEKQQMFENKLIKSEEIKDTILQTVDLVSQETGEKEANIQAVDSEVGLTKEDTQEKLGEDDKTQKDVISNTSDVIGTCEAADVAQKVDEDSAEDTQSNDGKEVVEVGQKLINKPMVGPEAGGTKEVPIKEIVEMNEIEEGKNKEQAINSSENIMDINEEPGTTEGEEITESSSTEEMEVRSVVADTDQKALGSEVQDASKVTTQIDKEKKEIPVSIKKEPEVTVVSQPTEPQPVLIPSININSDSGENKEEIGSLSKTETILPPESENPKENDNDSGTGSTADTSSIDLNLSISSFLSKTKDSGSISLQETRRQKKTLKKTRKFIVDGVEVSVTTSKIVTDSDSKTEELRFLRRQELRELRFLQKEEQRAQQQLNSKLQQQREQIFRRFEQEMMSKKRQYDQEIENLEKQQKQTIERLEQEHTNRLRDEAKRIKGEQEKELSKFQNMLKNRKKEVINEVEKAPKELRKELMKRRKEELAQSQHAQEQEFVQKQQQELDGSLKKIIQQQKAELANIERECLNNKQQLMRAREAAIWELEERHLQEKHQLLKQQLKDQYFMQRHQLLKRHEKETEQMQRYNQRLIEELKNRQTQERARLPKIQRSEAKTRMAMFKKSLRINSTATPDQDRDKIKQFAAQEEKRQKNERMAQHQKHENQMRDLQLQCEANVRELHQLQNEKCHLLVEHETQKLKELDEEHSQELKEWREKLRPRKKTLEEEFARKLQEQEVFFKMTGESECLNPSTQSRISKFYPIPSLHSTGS
Serine/threonine-protein kinase MRCK alpha (Homo sapiens), sequence (Q5VT25 whole entry): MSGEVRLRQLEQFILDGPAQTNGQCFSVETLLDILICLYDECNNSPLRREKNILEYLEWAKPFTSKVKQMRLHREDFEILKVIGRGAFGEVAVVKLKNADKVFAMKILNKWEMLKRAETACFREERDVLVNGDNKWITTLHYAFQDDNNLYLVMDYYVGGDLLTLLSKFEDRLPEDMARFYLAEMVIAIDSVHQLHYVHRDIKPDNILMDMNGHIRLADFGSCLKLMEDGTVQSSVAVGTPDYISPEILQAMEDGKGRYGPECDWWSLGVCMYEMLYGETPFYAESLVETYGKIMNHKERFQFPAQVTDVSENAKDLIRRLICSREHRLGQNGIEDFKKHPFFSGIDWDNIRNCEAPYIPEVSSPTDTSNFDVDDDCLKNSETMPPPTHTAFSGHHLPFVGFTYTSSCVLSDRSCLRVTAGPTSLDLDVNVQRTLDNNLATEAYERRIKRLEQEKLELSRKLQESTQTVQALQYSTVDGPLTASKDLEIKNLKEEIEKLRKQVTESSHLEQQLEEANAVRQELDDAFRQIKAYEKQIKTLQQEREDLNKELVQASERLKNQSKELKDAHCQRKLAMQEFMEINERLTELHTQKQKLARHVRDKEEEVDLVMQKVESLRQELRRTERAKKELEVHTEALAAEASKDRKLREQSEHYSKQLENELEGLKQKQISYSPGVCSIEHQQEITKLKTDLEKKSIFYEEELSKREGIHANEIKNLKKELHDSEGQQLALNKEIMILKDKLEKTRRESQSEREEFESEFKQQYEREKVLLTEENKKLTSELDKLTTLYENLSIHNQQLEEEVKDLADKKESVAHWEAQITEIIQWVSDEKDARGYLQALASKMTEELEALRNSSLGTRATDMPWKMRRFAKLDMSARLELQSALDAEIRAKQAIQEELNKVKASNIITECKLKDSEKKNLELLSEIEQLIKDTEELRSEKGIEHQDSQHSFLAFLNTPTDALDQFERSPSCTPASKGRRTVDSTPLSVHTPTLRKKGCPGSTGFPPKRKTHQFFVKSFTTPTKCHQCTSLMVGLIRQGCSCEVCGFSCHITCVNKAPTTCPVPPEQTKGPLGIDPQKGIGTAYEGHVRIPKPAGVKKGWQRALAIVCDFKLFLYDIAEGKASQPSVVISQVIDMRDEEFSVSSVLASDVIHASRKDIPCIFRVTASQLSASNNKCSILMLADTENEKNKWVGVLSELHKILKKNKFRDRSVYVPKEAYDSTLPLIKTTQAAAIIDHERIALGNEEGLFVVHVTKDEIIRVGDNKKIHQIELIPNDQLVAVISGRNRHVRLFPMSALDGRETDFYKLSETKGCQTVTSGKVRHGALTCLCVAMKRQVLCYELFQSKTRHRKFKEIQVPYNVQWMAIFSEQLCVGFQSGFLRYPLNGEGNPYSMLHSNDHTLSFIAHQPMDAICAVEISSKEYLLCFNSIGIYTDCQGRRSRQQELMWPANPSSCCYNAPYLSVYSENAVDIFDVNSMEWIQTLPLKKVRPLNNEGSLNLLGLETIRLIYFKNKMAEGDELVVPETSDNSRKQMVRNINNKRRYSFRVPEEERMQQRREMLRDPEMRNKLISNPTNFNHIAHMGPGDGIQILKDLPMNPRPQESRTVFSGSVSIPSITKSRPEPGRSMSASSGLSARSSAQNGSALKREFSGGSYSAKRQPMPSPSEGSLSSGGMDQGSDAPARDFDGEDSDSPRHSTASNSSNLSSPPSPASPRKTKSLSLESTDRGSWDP
Angiopoietin-1 receptor (Homo sapiens), sequence (Q02763 whole entry): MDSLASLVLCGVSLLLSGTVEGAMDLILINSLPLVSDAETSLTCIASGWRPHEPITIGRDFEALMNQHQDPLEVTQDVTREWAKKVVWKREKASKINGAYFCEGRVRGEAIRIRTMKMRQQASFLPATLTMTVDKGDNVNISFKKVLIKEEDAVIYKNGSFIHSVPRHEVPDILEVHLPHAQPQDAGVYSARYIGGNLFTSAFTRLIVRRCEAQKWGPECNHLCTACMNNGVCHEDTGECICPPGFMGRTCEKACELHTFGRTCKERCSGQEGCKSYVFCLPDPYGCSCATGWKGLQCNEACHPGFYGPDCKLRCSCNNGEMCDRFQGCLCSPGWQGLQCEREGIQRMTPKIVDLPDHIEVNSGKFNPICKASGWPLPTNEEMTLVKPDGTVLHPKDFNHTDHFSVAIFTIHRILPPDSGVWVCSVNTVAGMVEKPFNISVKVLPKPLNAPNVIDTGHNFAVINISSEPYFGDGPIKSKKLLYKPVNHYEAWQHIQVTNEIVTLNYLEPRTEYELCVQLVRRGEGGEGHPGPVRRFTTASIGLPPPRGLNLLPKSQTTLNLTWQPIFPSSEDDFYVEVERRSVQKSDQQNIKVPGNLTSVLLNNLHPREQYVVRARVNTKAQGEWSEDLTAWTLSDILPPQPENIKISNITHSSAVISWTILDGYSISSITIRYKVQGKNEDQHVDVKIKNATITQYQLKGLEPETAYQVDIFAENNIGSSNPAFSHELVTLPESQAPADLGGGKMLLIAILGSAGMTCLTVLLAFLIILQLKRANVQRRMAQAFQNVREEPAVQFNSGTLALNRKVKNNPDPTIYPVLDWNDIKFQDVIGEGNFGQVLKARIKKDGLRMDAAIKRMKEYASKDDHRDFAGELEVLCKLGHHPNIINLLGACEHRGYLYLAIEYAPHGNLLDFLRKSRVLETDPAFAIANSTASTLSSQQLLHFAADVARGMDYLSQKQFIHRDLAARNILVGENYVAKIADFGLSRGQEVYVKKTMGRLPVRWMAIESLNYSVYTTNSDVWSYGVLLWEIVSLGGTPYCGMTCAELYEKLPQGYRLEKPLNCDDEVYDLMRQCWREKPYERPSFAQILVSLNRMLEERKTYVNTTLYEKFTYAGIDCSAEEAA

SMILES: Cn1cc(-n2cnc3c(NCc4nc5cc(Cl)c(Cl)cc5[nH]4)nc(N4CCOCC4)nc32)cn1
% of control [1]: 11.7%
% of control [2]: 0.847%

SMILES: CNC(=O)Nc1ccc(-c2nc(N3CC4CCC(C3)O4)c3cnn(C4CCC5(CC4)OCCO5)c3n2)cc1
% of inhibition [4]: 10%
% of inhibition [5]: 3%

SMILES: Cc1cc(F)c(C(=O)Nc2cccc(-c3nncn3C(C)C)n2)cc1-n1cnc(C2CC2)c1
% of control [8]: 77%

SMILES: COc1cc(Nc2nc(C)cc(-c3cnn4nc(OC)ccc34)n2)cc(C(F)(F)F)c1
% of control [9]: 92%
% of control [10]: 89%

SMILES: COc1cc(N(C)c2ccnc3ccc(C(F)(F)F)cc23)cc(OC)c1OC
% binding [12]: 31%

SMILES: N#Cc1cccc(-c2c[nH]c3ncnc(N4CCOCC4)c23)c1
% of inhibition [14]: -6%

Other lines, results leading:

IC50 [3]: > 30 µM
SMILES: CCC(=O)N1CC[C@H](Nc2ncnc3c2CN(c2cnc(OC)c(C(F)(F)F)c2)CC3)C1 [LENIOLISIB]

% of inhibition [6]: 73%
SMILES: CC[C@@H]1[C@H](F)C(=O)N[C@@H]1COc1nccc2cc(C(N)=O)c(OC)cc12 [ZIMLOVISERTIB]

% of control ([7]; at 1 µM): 94%
% of control ([7]; at 5 µM): 86%
SMILES: C=CC(=O)Nc1cccc(C(=O)Nc2ccc(Nc3cc(-c4[nH]c(SC)nc4C)ccn3)cc2)c1

% of control [11]: 109%
SMILES: CC(=O)Nc1cccc(-n2c(=O)n(C3CC3)c(=O)c3c(Nc4ccc(I)cc4F)n(C)c(=O)c(C)c32)c1

IC50 [13]: > 30 µM
SMILES: Cn1cc(Nc2nccc(N3CC4CCC(C3)N4C(=O)[C@@H]3CC3(F)F)n2)cn1
